Data set [1] deals with JJN-3 (NIK translocated) multiple myeloma cells. Briefly: Antiproliferative activity on JJN-3 multiple myeloma cells (CellTiter-Glo). Conditions: JJN-3 (NIK translocated) cells, 96 hr treatment, averaged values, read-out: JJN-3 Proliferation inhibition (IC50 (nM)). Type of data set: cell-based, human. A digest of the protocol: (§1)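 Cells plated at 15000 (JJN3) or 20000 (KMS12BM) per well and treated 96 h at 37° C, 5% CO2, final DMSO 0.3%, 9-point 1:3 dilutions. Viability by CellTiter-Glo luminescence; time-zero blank subtracted, growth expressed as percent of untreated control.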
(In general: ATP-based viability assays read luminescence as a measure of living cells.)

In data set [2] the test system is P-IKKα levels in L363 (NIK translocated multiple myeloma) cells. Description: Effect of compounds on P-IKKα levels in L363 cells (Mesoscale sandwich immuno-assay). It counts as cell-based, human. As to conditions: 2 hr treatment, averaged values, read-out: Inhibition of pIKKα_L-363 (IC50 (nM)). As to the method:
Effect of Compounds on P-IKKα Levels in L363 (NIK Translocated Multiple Myeloma) Cells
All compounds tested were dissolved in DMSO and further dilutions were made in culture medium. Final DMSO concentration was 1% (v/v) in cell assays. The human L363 cells (ATCC) were cultured in RPMI 1640 medium supplemented with GlutaMax and 10% fetal calf serum (PAA). Cells were routinely maintained at densities of 0.2×10^6 cells per ml-1×10^6 cells per ml at 37° C. in a humidified 5% CO2 atmosphere. Cells were passaged twice a week splitting back to obtain the low density. Cells were seeded in 96 well plates (Nunc 167008) at 2×10^6 per ml media in a volume of 75 μl per well plus 25 μl 1 μg/ml recombinant human B-cell activating factor (BAFF/BLyS/TNFSF13B). Seeded cells were incubated at 37° C. in a humidified 5% CO2 atmosphere for 24 hr. Drugs and/or solvents were added (20 μl) to a final volume of 120 μl. Following 2 hr treatment plates were removed from the incubator and cell lysis was achieved by the addition of 30 μl 5× lysis buffer followed by shaking on a plate shaker at 4° C. for 10 min. At the end of this incubation lysed cells were centrifuged at 800×g for 20 min at 4° C. and the lysate was assessed for P-IKK levels by sandwich immuno-assay carried out in anti-rabbit antibody coated Mesoscale plates. Within an experiment, the results for each treatment were the mean of 2 replicate wells. For initial screening purposes, compounds were tested using an 8 point dilution curve (serial 1:3 dilutions). […] The blank incubation value was subtracted from all control and sample values. To determine the IC50 a sigmoidal curve was fitted to the plot of % inhibition of control P-IKKα levels versus Log10 compound concentration.

For data set [3], the system named is KMS12-BM (NIK WT) multiple myeloma cells. Briefly: Antiproliferative activity on KMS12-BM multiple myeloma cells (CellTiter-Glo). It counts as cell-based, human. As to conditions: 96 hr treatment, averaged values, read-out: KMS-12 Proliferation inhibition (IC50 (nM)). A digest of the protocol:
as §1

The target of data set [4] is recombinant human NF-kappaB-inducing Kinase (NIK/MAP3K14) (Homo sapiens, UniProt Q99558). Description: Inhibition of auto-phosphorylation of recombinant human NIK/MAP3K14 activity (AlphaScreen). It counts as biochemical. As to conditions: 25 microM ATP, averaged over all measurements on all batches. For orientation: In Alpha technology, singlet oxygen from a donor bead excites a nearby acceptor bead.
recombinant human NF-kappaB-inducing Kinase (NIK/MAP3K14), sequence (Q99558 whole entry): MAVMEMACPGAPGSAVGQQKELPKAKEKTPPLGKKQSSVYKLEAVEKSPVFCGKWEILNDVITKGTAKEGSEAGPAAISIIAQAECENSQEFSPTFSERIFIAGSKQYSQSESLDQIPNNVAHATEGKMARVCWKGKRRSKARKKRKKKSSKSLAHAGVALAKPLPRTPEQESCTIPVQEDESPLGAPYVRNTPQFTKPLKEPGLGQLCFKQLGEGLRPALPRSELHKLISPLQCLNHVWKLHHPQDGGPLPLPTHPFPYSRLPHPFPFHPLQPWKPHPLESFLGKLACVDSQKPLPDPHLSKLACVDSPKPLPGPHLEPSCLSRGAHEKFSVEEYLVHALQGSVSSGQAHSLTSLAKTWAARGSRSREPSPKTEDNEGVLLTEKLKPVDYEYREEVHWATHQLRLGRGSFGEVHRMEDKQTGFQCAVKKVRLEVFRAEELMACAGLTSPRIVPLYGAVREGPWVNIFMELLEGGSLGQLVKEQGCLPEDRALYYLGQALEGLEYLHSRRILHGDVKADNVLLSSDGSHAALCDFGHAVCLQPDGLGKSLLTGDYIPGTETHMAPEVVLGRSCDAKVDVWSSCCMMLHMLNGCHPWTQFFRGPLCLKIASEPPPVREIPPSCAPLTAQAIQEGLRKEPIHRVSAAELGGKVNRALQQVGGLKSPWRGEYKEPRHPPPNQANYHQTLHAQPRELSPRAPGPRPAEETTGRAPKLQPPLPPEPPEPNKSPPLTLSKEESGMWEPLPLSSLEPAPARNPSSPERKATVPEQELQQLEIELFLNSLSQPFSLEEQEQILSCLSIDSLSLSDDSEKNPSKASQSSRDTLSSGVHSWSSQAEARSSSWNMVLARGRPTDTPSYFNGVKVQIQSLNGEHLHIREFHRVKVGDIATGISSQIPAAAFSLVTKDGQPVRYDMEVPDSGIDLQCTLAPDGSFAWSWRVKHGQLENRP

The values that follow come from patent US11001569B2, “6-membered heteroaromatic substituted cyanoindoline derivatives as NIK inhibitors” (Janssen Pharmaceutica NV, priority 2016, dated 2021).

SMILES strings stand for the structures. Read-outs that look alike come from different tables or passages of the source. Bounds are passed on as bounds.

The molecule `Cc1cc(Nc2nccc(-c3cc(C#N)c4c(c3)[C@@](C)(CO)CN4)n2)c(=O)n(CC(C)N2CCOCC2)c1` (single isomer, unassigned) [Compound 23i] yielded a melting point of 136 °C. For the same molecule, the IC50 in data set [1] worked out at 30 nM. In addition, the IC50 in data set [2] came out at 2.9 nM. In data set [3], the IC50 was above 10000 nM. The IC50 in data set [4] was 2.3 nM.
The matching figures for `CN1CCCC(COc2ncc(Cl)cc2Nc2nccc(-c3cc(C#N)c4c(c3)[C@@](C)(CO)CN4)n2)C1` (single isomer, unassigned) [Compound 55]: 204 °C, 69 nM, 67.6 nM, 1350 nM and 3.8 nM.
The matching figures for `CN1CCCC(COc2ncc(Cl)cc2Nc2nccc(-c3cc(C#N)c4c(c3)[C@@](C)(CO)CN4)n2)C1` (single isomer, unassigned) [Compound 56]: 126 °C, 7 nM, around 7240 nM, around 148 nM and 3.5 nM.
In turn, `Cc1cnc(OCC2COCCN2C)c(Nc2nccc(-c3cc(C#N)c4c(c3)[C@@](C)(CO)CN4)n2)c1` (single isomer, unassigned) [Compound 148] showed a melting point of 154 °C. Besides, the IC50 in data set [1] was 135 nM. In data set [2] (Homo sapiens, L-363, 2 h), the IC50 stood at 13.8 nM. In addition, the IC50 in data set [3] (Homo sapiens, KMS-12-BM, 96 h) was above 10000 nM. Moreover, in data set [4], the IC50 worked out at 8.5 nM.
In turn, `Cc1cnc(OCC2COCCN2C)c(Nc2nccc(-c3cc(C#N)c4c(c3)[C@@](C)(CO)CN4)n2)c1` (single isomer, unassigned) [Compound 149] came in with a melting point of 146 °C. In addition, the IC50 in data set [1] is 29 nM. Besides, in data set [2], the IC50 is 7.8 nM. In data set [3], the IC50 was above 10000 nM. In addition, the IC50 in data set [4] was 8.9 nM.
As for `Cc1cnc(OCC2CN(C)CCO2)c(Nc2nccc(-c3cc(C#N)c4c(c3)[C@@](C)(CO)CN4)n2)c1` (single isomer, unassigned) [Compound 151], the melting point was 114 °C. For the same molecule, the IC50 in data set [1] (Homo sapiens, JJN-3, 96 h) was found to be 66 nM. Besides, the IC50 in data set [2] came to 13.8 nM. Besides, the IC50 in data set [3] (Homo sapiens, KMS-12-BM, 96 h) is above 10000 nM. The IC50 in data set [4] was found to be 5.5 nM.
`Cc1cc(Nc2nccc(-c3cc(C#N)c4c(c3)[C@@](C)(CO)CN4)n2)c(=O)n(CCN2CC(F)C2)c1` [Compound 1i]: the melting point turned out to be 149 °C. The IC50 in data set [1] (Homo sapiens, JJN-3, 96 h) came to 347 nM. Also, the IC50 in data set [2] (Homo sapiens, L-363, 2 h) stood at 2.6 nM. Further, in data set [3] (Homo sapiens, KMS-12-BM, 96 h), the IC50 was 3890 nM. Besides, the IC50 in data set [4] came to 1.1 nM.
In the same order, the values of `COCCNc1nc(OC)c(Nc2nccc(-c3cc(C#N)c4c(c3)C(C)(CO)CN4)n2)cc1Cl` (stereo not shown) [Compound 2] are 230 °C, 74 nM, 21.4 nM, above 10000 nM and 13.2 nM.
The matching figures for `Cc1cc(Nc2nccc(-c3cc(C#N)c4c(c3)[C@@](C)(CO)CN4)n2)c(=O)n(CCN2CC(C)OC(C)C2)c1` (stereo partly shown) [Compound 2i]: 135 °C, 479 nM, 1.1 nM, 5500 nM and 1.8 nM.
In the same order, the values of `C[C@]1(CO)CNc2c(C#N)cc(-c3ccnc(Nc4cc(F)cn(CCN5CCOCC5)c4=O)n3)cc21` [Compound 3i] are 252 °C, around 1780 nM, 3.3 nM, above 10000 nM and 1.3 nM.
On to `Cc1cc(Nc2nccc(-c3cc(C#N)c4c(c3)[C@@](C)(CO)CN4)n2)c(=O)n(Cc2nccn2C)c1` [Compound 4i], for which the melting point was 235 °C. In addition, the IC50 in data set [1] (Homo sapiens, JJN-3, 96 h) worked out at 316 nM. In data set [2] (Homo sapiens, L-363, 2 h), the IC50 turned out to be 8.9 nM. Also, the IC50 in data set [3] (Homo sapiens, KMS-12-BM, 96 h) was above 10000 nM. Further, the IC50 in data set [4] was found to be 1.3 nM.
In the same order, the values of `Cc1cc(Nc2nccc(-c3cc(C#N)c4c(c3)[C@@](C)(CO)CN4)n2)c(=O)n(Cc2nccn2C2CC2)c1` [Compound 6i] are 194 °C, 275 nM, 10 nM, 5130 nM and 1 nM.
The matching figures for `C[C@]1(CO)CNc2c(C#N)cc(-c3ccnc(Nc4ccc[nH]c4=O)n3)cc21` [Compound 8i]: above 250 °C, 776 nM, 74.1 nM, above 10000 nM and 4.5 nM.
Consider `Cc1cc(Nc2nccc(-c3cc(C#N)c4c(c3)[C@@](C)(CO)CN4)n2)c(=O)n(C)c1` [Compound 9i], for which the melting point was 313 °C. The IC50 in data set [1] (Homo sapiens, JJN-3, 96 h) worked out at 120 nM. Also, the IC50 in data set [2] (Homo sapiens, L-363, 2 h) turned out to be 8.5 nM. In data set [3] (Homo sapiens, KMS-12-BM, 96 h), the IC50 was above 10000 nM. In addition, the IC50 in data set [4] amounted to 1 nM.
In the same order, the values of `CN(C)C(=O)Cn1cc(Cl)cc(Nc2nccc(-c3cc(C#N)c4c(c3)[C@@](C)(CO)CN4)n2)c1=O` [Compound 11i] are 299 °C, around 1120 nM, 3.2 nM, above 10000 nM and 1.9 nM.
The molecule `CN(C)CCn1cc(Cl)cc(Nc2nccc(-c3cc(C#N)c4c(c3)[C@@](C)(CO)CN4)n2)c1=O` [Compound 12i] yielded a melting point of 198 °C. Further, the IC50 in data set [1] (Homo sapiens, JJN-3, 96 h) stood at 18 nM. Also, in data set [2] (Homo sapiens, L-363, 2 h), the IC50 came to 0.9 nM. Besides, the IC50 in data set [3] (Homo sapiens, KMS-12-BM, 96 h) came to 813 nM. The IC50 in data set [4] came to 1.1 nM.
In the same order, the values of `Cn1cc(Cl)cc(Nc2nccc(-c3cc(C#N)c4c(c3)[C@@](C)(CO)CN4)n2)c1=O` [Compound 13i] are 306 °C, 31 nM, 0.9 nM, above 10000 nM and 1.9 nM.
In the same order, the values of `Cc1cc(Nc2nccc(-c3cc(C#N)c4c(c3)[C@@](C)(CO)CN4)n2)c(=O)n(CCN2CC(C)NC(C)C2)c1` (stereo partly shown) [Compound 16i] are 232 °C, 25 nM, 11 nM, above 10000 nM and 1.2 nM.
The matching figures for `Cc1cc(Nc2nccc(-c3cc(C#N)c4c(c3)[C@@](C)(CO)CN4)n2)c(=O)n(CCN2CC(F)(F)C2)c1` [Compound 17i]: 190 °C, 33 nM, 1.8 nM, above 10000 nM and 1.9 nM.
For `Cc1cc(Nc2nccc(-c3cc(C#N)c4c(c3)[C@@](C)(CO)CN4)n2)c(=O)n(CCN2CCN(C)CC2)c1` [Compound 19i], the melting point stood at 148 °C. Further, the IC50 in data set [1] (Homo sapiens, JJN-3, 96 h) stood at 25 nM. Besides, the IC50 in data set [2] (Homo sapiens, L-363, 2 h) was 2.5 nM. For the same molecule, the IC50 in data set [3] (Homo sapiens, KMS-12-BM, 96 h) is above 10000 nM. Also, the IC50 in data set [4] came out at 0.6 nM.
Regarding `Cc1cc(Nc2nccc(-c3cc(C#N)c4c(c3)[C@@](C)(CO)CN4)n2)c(=O)n(CCN2CCCOCC2)c1` [Compound 20i], the melting point worked out at 287 °C. Also, the IC50 in data set [1] (Homo sapiens, JJN-3, 96 h) came to 41 nM. In addition, in data set [2] (Homo sapiens, L-363, 2 h), the IC50 was found to be 1.5 nM. In addition, the IC50 in data set [3] (Homo sapiens, KMS-12-BM, 96 h) was above 10000 nM. Besides, the IC50 in data set [4] is 2.3 nM.
In the same order, the values of `Cc1cc(Nc2nccc(-c3cc(C#N)c4c(c3)[C@@](C)(COC(=O)C(C)C)CN4)n2)c(=O)n(CCN2CC(C)OC(C)C2)c1` (stereo partly shown) [Compound 24i] are 120 °C, 32 nM, 5.5 nM, above 10000 nM and 23.4 nM.
As to `Cc1cc(Nc2nccc(-c3cc(C#N)c4c(c3)[C@@](C)(CO)CN4)n2)c(=O)n(CC2(C)COC2)c1` [Compound 29i], the melting point was 129 °C. Moreover, the IC50 in data set [1] (Homo sapiens, JJN-3, 96 h) worked out at 100 nM. Moreover, the IC50 in data set [2] (Homo sapiens, L-363, 2 h) was 3.7 nM. Besides, the IC50 in data set [3] (Homo sapiens, KMS-12-BM, 96 h) is above 10000 nM. For the same molecule, the IC50 in data set [4] worked out at 3 nM.

As usually defined, the melting point is the temperature, or range, at which the solid turns liquid.
